Measured values: patent EP2818472A1, “Imidazo[4,5-c]pyridine and pyrrolo[3,2-c]pyridine compounds as G-protein-coupled receptor kinase 5 (GRK5) modulators” (Max-Planck-Gesellschaft zur Förderung der Wissenschaften …, priority 2013, dated 2014)

What follows are compounds tested on beta-TC6 cells (assay: Insulin HTRF assay (relative activity Ar) in beta-TC6 cells). Settings: Mus musculus, Beta-TC6, 4 h, insulin HTRF, supernatant of beta-TC6 cells, incubation with test compound at 37°C for 2, 3, 4h; read-out: Ar (relative activity).
Format: cell-based, mouse
Summary of the method: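 beta-TC6 cells (15k/well, seeded 24 or 48 h) washed, then exposed to compound in induction buffer (0.5% DMSO final) for 2, 3 or 4 h at 37°C.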
`CC(=O)N(C)c1cccc(-c2cc3cnc(Nc4ccccn4)cc3n2C)c1` [Compound 167, N-methyl-N-[3-[1-methyl-6-(2-pyridylamino)pyrrolo[3,2-c]pyridin-2-yl]phenyl]acetamide] was tested, and the Emax was 30 to 50%. `CC(=O)N(C)c1cccc(-c2cc3cnc(Nc4ccc(C#N)cc4)cc3n2C)c1` [Compound 168, N-[3-[6-(4-cyanoanilino)-1-methyl-pyrrolo[3,2-c]pyridin-2-yl]phenyl]-N-methyl-acetamide] was tested, and the Emax was 30 to 50%. `CC(=O)N(C)c1cccc(-c2cc3cnc(Nc4ccc5c(c4)OCO5)cc3n2C)c1` [Compound 169, N-[3-[6-(1,3-benzodioxol-5-ylamino)-1-methyl-pyrrolo[3,2-c]pyridin-2-yl]phenyl]-N-methyl-acetamide] showed an Emax of 30 to 50%. `CC(=O)N(C)c1cccc(-c2cc3cnc(Nc4cccc(O)c4)cc3n2C)c1` [Compound 170, N-[3-[6-(3-hydroxyanilino)-1-methyl-pyrrolo[3,2-c]pyridin-2-yl]phenyl]-N-methyl-acetamide] was tested, and the Emax was 50 to 100%. Work on `CC(=O)N(C)c1cccc(-c2cc3cnc(N4CCOCC4)cc3n2C)c1` [Compound 171, N-methyl-N-[3-(1-methyl-6-morpholino-pyrrolo[3,2-c]pyridin-2-yl)phenyl]acetamide] yielded an Emax of 50 to 100%. `CC(=O)N(C)c1cccc(-c2cc3cnc(Nc4ccc(C(=O)N(C)C)cc4)cc3n2C)c1` [Compound 172, 4-[[2-[3-[acetyl(methyl)amino]phenyl]-1-methyl-pyrrolo[3,2-c]pyridin-6-yl]amino]-N,N-dimethyl-benzamide] was tested, and the Emax was 50 to 100%. In the case of `CC(=O)N(C)c1cccc(-c2cc3cnc(Nc4ccc(S(C)(=O)=O)cc4)cc3n2C)c1` [Compound 173, N-methyl-N-[3-[1-methyl-6-(4-methylsulfonylanilino)pyrrolo[3,2-c]pyridin-2-yl]phenyl]acetamide], the Emax was 30 to 50%. Work on `COc1cc(Nc2cc3[nH]c(-c4ccccc4)cc3cn2)cc(OC)c1OC` [Compound 174, 2-phenyl-N-(3,4,5-trimethoxyphenyl)-1H-pyrrolo[3,2-c]pyridin-6-amine] yielded an Emax of 50 to 100%. `COc1ccc(Nc2cc3[nH]c(-c4ccccc4)cc3cn2)cc1OC` [Compound 175, N-(3,4-dimethoxyphenyl)-2-phenyl-1 H-pyrrolo[3,2-c]pyridin-6-amine] gave an Emax of 50 to 100%. `c1ccc(-c2cc3cnc(Nc4ccc(N5CCOCC5)cc4)cc3[nH]2)cc1` [Compound 176, N-(4-morpholinophenyl)-2-phenyl-1H-pyrrolo[3,2-c]pyridin-6-amine] showed an Emax of 50 to 100%. In the case of `CN1CCN(c2ccc(Nc3cc4[nH]c(-c5ccccc5)cc4cn3)cc2)CC1` [Compound 177, N-[4-(4-methylpiperazin-1-yl)phenyl]-2-phenyl-1H-pyrrolo[3,2-c]pyridin-6-amine], the Emax was 50 to 100%. `c1ccc(-c2cc3cnc(Nc4ccncc4)cc3[nH]2)cc1` [Compound 178, 2-phenyl-N-(4-pyridyl)-1H-pyrrolo[3,2-c]pyridin-6-amine] showed an Emax of 30 to 50%. With `Fc1ccc(Nc2cc3[nH]c(-c4ccccc4)cc3cn2)cc1` [Compound 179, N-(4-fluorophenyl)-2-phenyl-1H-pyrrolo[3,2-c]pyridin-6-amine] the Emax was 30 to 50%. With `Oc1cccc(Nc2cc3[nH]c(-c4ccccc4)cc3cn2)c1` [Compound 180, 3-[(2-phenyl-1H-pyrrolo[3,2-c]pyridin-6-yl)amino]phenol] the Emax was 50 to 100%. In the case of `c1ccc(-c2cc3cnc(N4CCOCC4)cc3[nH]2)cc1` [Compound 181, 4-(2-phenyl-1H-pyrrolo[3,2-c]pyridin-6-yl)morpholine], the Emax was over 100%. `CN(C)C(=O)c1ccc(Nc2cc3[nH]c(-c4ccccc4)cc3cn2)cc1` [Compound 182, N,N-dimethyl-4-[(2-phenyl-1H-pyrrolo[3,2-c]pyridin-6-yl)amino]benzamide] showed an Emax of 50 to 100%. `CC(=O)Nc1cccc(Nc2cc3[nH]c(-c4ccccc4)cc3cn2)c1` [Compound 183, N-[3-[(2-phenyl-1H-pyrrolo[3,2-c]pyridin-6-yl)amino]phenyl]acetamide] was tested, and the Emax was 50 to 100%. `c1ccc(Cn2c(-c3ccccc3)cc3cnc(Nc4ccncn4)cc32)cc1` [Compound 184, 1-benzyl-2-phenyl-N-pyrimidin-4-yl-pyrrolo[3,2-c]pyridin-6-amine] was tested, and the Emax was 30 to 50%. With `Fc1cccc(-c2cc3c(N4CCOCC4)nccc3[nH]2)c1` [Compound 187, 4-[2-(3-fluorophenyl)-1H-pyrrolo[3,2-c]pyridin-4-yl]morpholine] the Emax was 30 to 50%. For `CN(C)C(=O)c1ccc(-c2cc3c(N4CCOCC4)nccc3n2C)cc1` [Compound 188, N,N-dimethyl-4-(1-methyl-4-morpholino-pyrrolo[3,2-c]pyridin-2-yl)benzamide], the Emax was 0 to 30%. `CN(C)c1ccc(-c2cc3c(N4CCOCC4)nccc3[nH]2)cc1` [Compound 189, N,N-dimethyl-4-(4-morpholino-1H-pyrrolo[3,2-c]pyridin-2-yl)aniline] gave an Emax of over 100%. `c1cc2[nH]c(-c3ccsc3)cc2c(N2CCOCC2)n1` [Compound 191, 4-[2-(3-thienyl)-1H-pyrrolo[3,2-c]pyridin-4-yl]morpholine] showed an Emax of 50 to 100%. `COc1cc(OC)cc(-c2cc3c(N4CCOCC4)nccc3n2C)c1` [Compound 192, 4-[2-(3,5-dimethoxyphenyl)-1-methyl-pyrrolo[3,2-c]pyridin-4-yl]morpholine] was tested, and the Emax was 0 to 30%. `COc1ccccc1-c1cc2c(N3CCOCC3)nccc2[nH]1` [Compound 193, 4-[2-(2-methoxyphenyl)-1H-pyrrolo[3,2-c]pyridin-4-yl]morpholine] showed an Emax of 50 to 100%. Compound `Cn1c(-c2cccc(Cl)c2)cc2c(N3CCOCC3)nccc21` [Compound 195, 4-[2-(3-chlorophenyl)-1-methyl-pyrrolo[3,2-c]pyridin-4-yl]morpholine] has an Emax of 30 to 50%. `FC(F)(F)c1cccc(-c2cc3c(Nc4cccnc4)nccc3[nH]2)c1` [Compound 196, N-(3-pyridyl)-2-[3-(trifluoromethyl)phenyl]-1H-pyrrolo[3,2-c]pyridin-4-amine] showed an Emax of 50 to 100%. In the case of `CS(=O)(=O)c1ccc(Nc2nccc3[nH]c(-c4cccc(C(F)(F)F)c4)cc23)cc1` [Compound 197, N-(4-methylsulfonylphenyl)-2-[3-(trifluoromethyl)phenyl]-1H-pyrrolo[3,2-c]pyridin-4-amine], the Emax was 30 to 50%. Compound `CC(=O)Nc1ccc(Nc2nccc3[nH]c(-c4cccc(F)c4)cc23)cc1` [Compound 198, N-[4-[[2-(3-fluorophenyl)-1H-pyrrolo[3,2-c]pyridin-4-yl]amino]phenyl]acetamide] has an Emax of 50 to 100%. `Oc1ccc(Nc2nccc3[nH]c(-c4cccc(F)c4)cc23)cc1` [Compound 199, 4-[[2-(3-fluorophenyl)-1H-pyrrolo[3,2-c]pyridin-4-yl]amino]phenol] was tested, and the Emax was 50 to 100%. `Fc1cccc(-c2cc3c(Nc4cccnc4)nccc3[nH]2)c1` [Compound 200, 2-(3-fluorophenyl)-N-(3-pyridyl)-1H-pyrrolo[3,2-c]pyridin-4-amine] gave an Emax of 30 to 50%. In the case of `CN1CCN(c2ccc(Nc3nccc4[nH]c(-c5cccc(F)c5)cc34)cc2)CC1` [Compound 201, 2-(3-fluorophenyl)-N-[4-(4-methylpiperazin-1-yl)phenyl]-1H-pyrrolo[3,2-c]pyridin-4-amine], the Emax was 30 to 50%. In the case of `CS(=O)(=O)c1cccc(Nc2nccc3[nH]c(-c4cccc(F)c4)cc23)c1` [Compound 202, 2-(3-fluorophenyl)-N-(3-methylsulfonylphenyl)-1H-pyrrolo[3,2-c]pyridin-4-amine], the Emax was 30 to 50%. `Fc1cccc(-c2cc3c(Nc4ccc5c(c4)OCO5)nccc3[nH]2)c1` [Compound 203, N-(1,3-benzodioxol-5-yl)-2-(3-fluorophenyl)-1H-pyrrolo[3,2-c]pyridin-4-amine] was tested, and the Emax was 30 to 50%. With `COc1ccc(Nc2nccc3[nH]c(-c4cccc(F)c4)cc23)cc1O` [Compound 204, 5-[[2-(3-fluorophenyl)-1H-pyrrolo[3,2-c]pyridin-4-yl]amino]-2-methoxy-phenol] the Emax was 50 to 100%. In the case of `CS(=O)(=O)Nc1cccc(Nc2nccc3[nH]c(-c4cccc(F)c4)cc23)c1` [Compound 205, N-[3-[[2-(3-fluorophenyl)-1H-pyrrolo[3,2-c]pyridin-4-yl]amino]phenyl]methanesulfonamide], the Emax was 50 to 100%. In the case of `CC(=O)Nc1cccc(Nc2nccc3[nH]c(-c4cccc(F)c4)cc23)c1` [Compound 206, N-[3-[[2-(3-fluorophenyl)-1H-pyrrolo[3,2-c]pyridin-4-yl]amino]phenyl]acetamide], the Emax was 50 to 100%. Compound `CS(=O)(=O)c1ccc(Nc2nccc3[nH]c(-c4cccc(F)c4)cc23)cc1` [Compound 207, 2-(3-fluorophenyl)-N-(4-methylsulfonylphenyl)-1H-pyrrolo[3,2-c]pyridin-4-amine] has an Emax of 50 to 100%. `COc1ccc(Nc2nccc3c2cc(-c2cccc(F)c2)n3C)cc1OC` [Compound 208, N-(3,4-dimethoxyphenyl)-2-(3-fluorophenyl)-1-methyl-pyrrolo[3,2-c]pyridin-4-amine] was tested, and the Emax was 30 to 50%. Compound `CN1CCN(c2ccc(Nc3nccc4c3cc(-c3cccc(F)c3)n4C)cc2)CC1` [Compound 209, 2-(3-fluorophenyl)-1-methyl-N-[4-(4-methylpiperazin-1-yl)phenyl]pyrrolo[3,2-c]pyridin-4-amine] has an Emax of 50 to 100%. `CC(=O)Nc1cccc(Nc2nccc3c2cc(-c2cccc(F)c2)n3C)c1` [Compound 210, N-[3-[[2-(3-fluorophenyl)-1-methyl-pyrrolo[3,2-c]pyridin-4-yl]amino]phenyl]acetamide] gave an Emax of 30 to 50%. For `CC(=O)Nc1ccc(Nc2nccc3c2cc(-c2ccc(C(=O)N(C)C)cc2)n3C)cc1` [Compound 211, 4-[4-(4-acetamidoanilino)-1-methyl-pyrrolo[3,2-c]pyridin-2-yl]-N,N-dimethyl-benzamide], the Emax was 30 to 50%. Work on `COc1cccc(Nc2nccc3c2cc(-c2ccc(C(=O)N(C)C)cc2)n3C)c1` [Compound 212, 4-[4-(3-methoxyanilino)-1-methyl-pyrrolo[3,2-c]pyridin-2-yl]-N,N-dimethyl-benzamide] yielded an Emax of 30 to 50%. `CN(C)C(=O)c1ccc(-c2cc3c(Nc4ccc(C(N)=O)cc4)nccc3n2C)cc1` [Compound 213, 4-[4-(4-carbamoylanilino)-1-methyl-pyrrolo[3,2-c]pyridin-2-yl]-N,N-dimethyl-benzamide] showed an Emax of 50 to 100%.
